The values that follow come from patent US20070105835A1, “Compositions and methods for modulating poly(ADP-ribose) polymerase activity” (priority 2005, published 2007).

In assay [1] the test system is PC12 cell-line expressing fragments of mutant Htt protein. Description: oxidant (hydrogen peroxide)-mediated ATP loss and cell death in PC12 cells expressing mutant Htt fragments. The class given is cell-based. On the procedure: To investigate the impact of oxidative stress on HD cells we measured ATP levels in lymphoblasts derived from HD patients and normal controls. ATP levels were measured using a commercially available-luciferase substrate. The luciferase enzyme uses ATP as a cofactor to produce one photon of light per substrate molecule (e.g., luciferin). The detectable output is luminescence. There is a linear relationship between the amount of signal output and the amount of ATP present in the sample. Thus, the amount of ATP present in a sample can be directly correlated with the measured output.
To investigate the basis for the hypersensitivity of mutant cells to oxidative stress, we employed a chemical biological approach and screened for small molecules capable of preventing an unsustainable loss of ATP in HD mutant cells. We developed an assay to measure oxidative stress-dependent ATP loss and subsequent cell-death. […] In addition, amino groups of each of CGI and K245-14 were predicted to form hydrogen bonds with Ser243 and Gly202 of PARP1.
To confirm that inhibition of PARP-1 activity could protect cells from ATP depletion, we tested two known enzyme inhibitors in PC12 cells challenged with oxidative stress. The PC12 cell line expressed fragments of mutant Htt protein as described above. […] Maintenance of ATP levels rescued by the PARP-1 inhibitors was dependent on the severity of cellular oxidation (FIG. 2A).

For assay [2], the system named is striatal cells derived from Huntingtin double knock-in mutant and wildtype transgenic mice. Description: ATP levels in oxidant-treated wildtype and mutant HD striatal cells. The class given is cell-based, mouse. The following applies: for rescue of loss of ATP: mutant and wild type striatal cells, oxidant-treated; for pEC50: read-out: oxidant concentration for 50% loss of ATP; for loss of ATP from basal ATP levels: 500 μM oxidant. On the procedure:
(§1) FIGS. 3A-3F. FIG. 3A is a bar graph showing the effect of the PARP-1 inhibitor ANI on ATP levels in one normal (white) and two mutant HD (black) lymphoid cell lines treated with the oxidant (Oxd.) hydrogen peroxide. Lymphoblasts treated (T) with 200 μM oxidant were supplemented with mock inhibitor (DMSO) or with 5 μM PARP-1 inhibitor ANI. FIG. 3B is a bar graph showing the effect of the novel PARP-1 inhibitor K245 on ATP levels in oxidant (Oxd.) treated normal (white) and mutant HD (black) lymphoid cell lines. Hydrogen peroxide was the oxidant. Lymphoblasts treated (T) with 200 μM oxidant were supplemented with mock inhibitor (DMSO) or with 1, 5 or 10 μM PARP-1 inhibitor K245. FIG. 3C is a bar graph showing the effects of various compounds on relative ATP levels in wildtype (white) and mutant HD (black) striatal cells treated with 400 μM hydrogen peroxide. Basal ATP levels in cells untreated with oxidant were 100%. Oxidant-treated cells were supplemented with mock (DMSO) or PARP-1 inhibitors ANI and K245 at concentrations 0.1 μM, 1 μM, and 5 μM; and 1 μM, 5 μM, and 10 μM, respectively. […] FIG. 3D is a bar graph showing the effects of PARP-1 inhibitors ANI and K245 on basal ATP levels in normal (white) and mutant HD (black) lymphoblasts. Cells were supplemented with 5 μM ANI and 10 μM K245. Basal ATP levels in cells supplemented with mock (DMSO) were 100%. Cells were not treated with oxidant. FIG. 3E is a bar graph showing the effects of PARP-1 inhibitors on ATP levels in untreated striatal cells and in striatal cells treated with the mitochondrial blocker 3-NP. Wildtype cells are indicated by white bars and mutant HD cells are indicated by black bars. Untreated wildtype and mutant HD cells were supplemented with 5 μM ANI or 10 μM K245. Basal ATP levels in cells supplemented with mock (DMSO) were 100%. Cells treated with 5 μM 3-NP were supplemented with mock (DMSO), 1 or 5 μM ANI, or 1 μM, 5 μM, or 10 μM K245. FIG. 3F is a bar graph showing PARP-1 activity levels in untreated wildtype (7Q) and mutant HD (111Q) striatal cells, and in normal (30Q) and mutant HD (63Q) lymphoblasts.

Assay [3] deals with lymphoblasts derived from HD patients and normal controls. Kind of assay: ATP levels in oxidant-treated normal and HD lymphoblasts. The class given is cell-based, human. The conditions noted are these: for rescue of loss of ATP: HD and wild type lymphoblasts, oxidant-treated; for pEC50: Homo sapiens, read-out: oxidant concentration for 50% loss of ATP. On the procedure: as §1
For assay [4], the target named is recombinant PARP-1 (Homo sapiens, UniProt P09874). Description: in vitro PARP-1 enzyme inhibition assay. The class given is biochemical. The procedure:
FIGS. 2A-2F. FIG. 2A is a bar graph showing ATP levels in PC12 cells treated with the oxidant (Oxd.), hydrogen peroxide, in the absence (white) and in the presence (gray) of the PARP-1 inhibitor (ANI). FIG. 2B is a graph showing relative ATP levels in PC12 cells treated with hydrogen peroxide in the absence (solid line) and in the presence (dashed line) of 5 μM PARP-1 inhibitor ANI. FIG. 2C is a bar graph showing ATP levels in PC12 cells either untreated (U) or treated (T) with 200 μM oxidant and supplemented with the compounds indicated at the concentrations indicated. […] The IC50 of each inhibitor, determined by in vitro assay, is also shown. […] FIG. 2E is a bar graph showing the effect of different compounds on recombinant PARP-1 activity in vitro. PARP-1 enzymatic activities were determined in the absence (white) or presence (gray) of the testing compounds. […] FIG. 2F is a graph showing the calculated IC50 of inhibitor K245.
(See, e.g., Jagtap and Szabo, Nat Rev Drug Discov. 4:421-440, 2005; Ha and Snyder, Proc Natl Acad Sci USA. 96: 13978-13982, 1999; and Ying et al., Proc Natl Acad Sci USA 98:12227-12232, 2001). To test the effect of the compounds on PARP1 activity, an in vitro PARP-1 assay was used.
Identification of structural analogs. […] PARP-1 activity in the presence of decreasing concentrations of three different inhibitors is shown in the graph in FIG. 6.

For assay [5], the system named is α-synuclein toxicity. Kind of assay: Parkinson's Disease alpha-synuclein toxicity assay. It counts as cell-based. An excerpt:
Alpha-synuclein toxicity assays can also be used to identify compounds that positively impact cell survival and/or function. […] As noted, Parkinson's Disease is among the indications for the present compositions.

[6] abbreviates: text and figure legend, read-out: IC50 for PARP-1 inhibition in vitro.
The mark [7] stands for this setting: Table 3, in vitro enzyme inhibition, read-out: IC50.

Each structure is given as a SMILES string. pEC50, pIC50: −log10 of the molar value. “Also recorded” adds a separate entry of the source. Like-named read-outs stand apart in the source and are kept apart here.

Sequence of recombinant PARP-1 (P09874 whole entry): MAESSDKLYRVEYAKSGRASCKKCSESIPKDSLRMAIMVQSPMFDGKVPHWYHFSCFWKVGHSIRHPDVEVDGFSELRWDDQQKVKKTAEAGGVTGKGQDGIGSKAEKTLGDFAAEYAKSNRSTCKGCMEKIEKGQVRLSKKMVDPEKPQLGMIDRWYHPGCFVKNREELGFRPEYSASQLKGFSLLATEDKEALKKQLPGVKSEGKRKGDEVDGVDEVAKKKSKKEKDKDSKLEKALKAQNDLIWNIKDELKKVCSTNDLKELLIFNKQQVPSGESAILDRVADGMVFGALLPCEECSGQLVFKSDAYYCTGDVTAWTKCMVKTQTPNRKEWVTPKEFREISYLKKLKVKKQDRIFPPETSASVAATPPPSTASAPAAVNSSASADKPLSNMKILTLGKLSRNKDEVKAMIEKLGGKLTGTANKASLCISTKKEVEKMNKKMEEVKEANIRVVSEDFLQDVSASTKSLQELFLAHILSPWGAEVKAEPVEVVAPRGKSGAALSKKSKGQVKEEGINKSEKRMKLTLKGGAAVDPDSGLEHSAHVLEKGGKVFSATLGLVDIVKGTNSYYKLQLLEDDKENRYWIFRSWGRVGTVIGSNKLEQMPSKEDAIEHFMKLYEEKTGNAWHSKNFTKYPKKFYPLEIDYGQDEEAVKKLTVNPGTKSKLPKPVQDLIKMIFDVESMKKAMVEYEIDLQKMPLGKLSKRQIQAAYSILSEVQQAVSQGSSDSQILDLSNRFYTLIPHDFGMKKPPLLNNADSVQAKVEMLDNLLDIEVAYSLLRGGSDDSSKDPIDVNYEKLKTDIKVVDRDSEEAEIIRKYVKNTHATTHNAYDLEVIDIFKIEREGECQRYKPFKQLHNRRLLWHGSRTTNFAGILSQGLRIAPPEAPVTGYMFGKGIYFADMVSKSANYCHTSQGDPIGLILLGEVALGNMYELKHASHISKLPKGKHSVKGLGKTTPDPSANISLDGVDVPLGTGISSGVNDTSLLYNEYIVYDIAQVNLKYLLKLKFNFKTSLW

As to `Nc1ccc2c3c(cccc13)C(=O)NC2=O` [4-ANI], the “rescue of oxidant-mediated ATP loss and cell death” value in assay [1] is “protected high levels of cellular ATP”. Further, the “rescue of loss of ATP” value in assay [2] and in assay [3] was “rescued loss of ATP” throughout.
One may read the pIC50 as −log10 of the IC50, conventionally taken in molar units. With `Nc1ccc2c3c(cccc13)C(=O)N2` [CG1], the “rescue of oxidant-mediated ATP loss and cell death” value in assay [1] was “rescued oxidant-mediated ATP loss and cell death”. In assay [4] (setting [6]), the negative-log IC50 (pIC50) was 5.60.
`CCN1C(=O)c2cccc3c(N)ccc1c23` [CG3, reference compound]: the “rescue of oxidant-mediated ATP loss and cell death” value in assay [1] is recorded as “did not protect cells from oxidative stress”. The PARP-1 inhibition entry in assay [4] (result in words) is on record as “did not show any PARP-1 inhibition activity; also recorded: failed to inhibit PARP-1 activity”.
As for `CCN(CC)CCNC(=O)c1ccc2c(c1)NC(=O)c1ccccc1N2` [K245-14], in assay [5], the “protective effect in α-synuclein toxicity assay” value was “small but reproducible protective effects”. For the same compound, the “rescue of oxidant-mediated ATP loss and cell death” value in assay [1] was “rescued oxidant-mediated ATP loss and cell death”. The pIC50 in assay [4] (setting [6]) is 5.70. Moreover, the “rescue of loss of ATP” value in assay [2] and in assay [3] was “rescued loss of ATP” in each case.
`COc1ccc(N2CCN(C(=O)c3ccc4c(c3)NC(=O)c3ccccc3N4)CC2)cc1` [K245-39A]: the negative-log IC50 (pIC50) in assay [4] (setting [7]) was 5.26.
Same read-out and setting: the same measure for `O=C1Nc2cc(C(=O)N3CCN(Cc4ccccc4)CC3)ccc2Nc2ccccc21` [K245-42]: 5.66; for `O=C1Nc2cc(C(=O)N3CCCC3)ccc2Nc2ccccc21` [K245-80]: 5.46; for `O=C1Nc2cc(C(=O)N3CCN(c4ccc(Cl)cc4)CC3)ccc2Nc2ccccc21` [K245-88]: 6.82.
The same measure, in the same setting: the figure for `O=C1Nc2cc(C(=O)N3CCN(c4ccccc4F)CC3)ccc2Nc2ccccc21` [K245-89] is 6.26.
Same read-out and setting: the same measure for `COC(CNC(=O)c1ccc2c(c1)NC(=O)c1ccccc1N2)OC` [K245-95]: 5.70.
On to `CCN(CCCNC(=O)c1ccc2c(c1)NC(=O)c1ccccc1N2)c1cccc(C)c1` [K245-99], for which, in assay [4] (setting [7]), the negative logarithm of the IC50 (pIC50) is 5.40.
For `OO` [hydrogen peroxide], the pEC50 in assay [2] (Mus musculus, mutant HD striatal cells) was 3.39; in assay [2] (Mus musculus, wildtype striatal cells), 3.26; in assay [2] (mutant HD striatal cells) it was 3.38; in assay [3] (mutant HD lymphoblasts), 4.22; in assay [3] (normal lymphoblasts), 3.92. Besides, the “loss of ATP from basal ATP levels” value stood at 80% in assay [2] (mutant striatal cells) and 20% in assay [2] (wildtype striatal cells).
